Assay results reported in ChEMBL document CHEMBL1155516, “Biochemical and structural analysis of the binding determinants of a vascular endothelial growth factor receptor peptidic antagonist” (J Med Chem, 2010).
The source made the active and inactive calls. No cut-off for these calls is given here. Where a SMILES comes first, the peptide text is derived from it. Bridges are numbered along the chain shown (N, C = ends).

Tests used:
[1] = target: Vascular endothelial growth factor receptor 2 (Homo sapiens) (UniProt P35968); experiment: Inhibition of VEGFR2 phosphorylation in VEGF165-stimulated HUVEC at 100 uM treated for 1 hr before VEGF165 challenge measured after 5 mins by Western blot analysis; type: cell-based
[2] = target: Vascular endothelial growth factor receptor 2 (Homo sapiens) (UniProt P35968); experiment: Binding affinity to human recombinant VEGFR2 extracellular domain immobilized in CNBr-activated sepharose at 25 nmol after 5 mins by pull-down assay
[3] = target: Vascular endothelial growth factor receptor 2 (Homo sapiens) (UniProt P35968); experiment: Inhibition of VEGFR2 phosphorylation in VEGF165-stimulated HUVEC treated for 1 hr before VEGF165 challenge measured after 5 mins by Western blot analysis; type: cell-based
HUVEC [4] = details: Homo sapiens, 100 uM
Description: Inhibition of VEGFR in HUVEC assessed as inhibition of VEGF165-induced ERK1/2 phosphorylation at 100 uM treated for 1 hr before VEGF165 challenge measured after 15 mins by Western blot analysis

[5] = target: Vascular endothelial growth factor receptor 2 (Homo sapiens) (UniProt P35968); experiment: Inhibition of VEGFR2 phosphorylation in VEGF165-stimulated HUVEC at 33 uM treated for 1 hr before VEGF165 challenge measured after 5 mins by Western blot analysis; type: cell-based
HUVEC [6] = details: Homo sapiens, 3 uM
Description: Inhibition of VEGFR in HUVEC assessed as inhibition of VEGF165-induced ERK1/2 phosphorylation at 3 uM treated for 1 hr before VEGF165 challenge measured after 15 mins by Western blot analysis

[7] = target: Vascular endothelial growth factor receptor 2 (Homo sapiens) (UniProt P35968); experiment: Inhibition of VEGFR2 phosphorylation in VEGF165-stimulated HUVEC at 10 uM treated for 1 hr before VEGF165 challenge measured after 5 mins by Western blot analysis; type: cell-based
[8] = target: Vascular endothelial growth factor receptor 2 (Homo sapiens) (UniProt P35968); experiment: Inhibition of VEGFR2 phosphorylation in VEGF165-stimulated HUVEC at 3 uM treated for 1 hr before VEGF165 challenge measured after 5 mins by Western blot analysis
HUVEC [9] = details: Homo sapiens, 33 uM
Description: Inhibition of VEGFR in HUVEC assessed as inhibition of VEGF165-induced ERK1/2 phosphorylation at 33 uM treated for 1 hr before VEGF165 challenge measured after 15 mins by Western blot analysis

HUVEC [10] = details: Homo sapiens, 10 uM

Vascular endothelial growth factor receptor 2 (Homo sapiens), sequence (P35968 whole entry, the tested form may be a part): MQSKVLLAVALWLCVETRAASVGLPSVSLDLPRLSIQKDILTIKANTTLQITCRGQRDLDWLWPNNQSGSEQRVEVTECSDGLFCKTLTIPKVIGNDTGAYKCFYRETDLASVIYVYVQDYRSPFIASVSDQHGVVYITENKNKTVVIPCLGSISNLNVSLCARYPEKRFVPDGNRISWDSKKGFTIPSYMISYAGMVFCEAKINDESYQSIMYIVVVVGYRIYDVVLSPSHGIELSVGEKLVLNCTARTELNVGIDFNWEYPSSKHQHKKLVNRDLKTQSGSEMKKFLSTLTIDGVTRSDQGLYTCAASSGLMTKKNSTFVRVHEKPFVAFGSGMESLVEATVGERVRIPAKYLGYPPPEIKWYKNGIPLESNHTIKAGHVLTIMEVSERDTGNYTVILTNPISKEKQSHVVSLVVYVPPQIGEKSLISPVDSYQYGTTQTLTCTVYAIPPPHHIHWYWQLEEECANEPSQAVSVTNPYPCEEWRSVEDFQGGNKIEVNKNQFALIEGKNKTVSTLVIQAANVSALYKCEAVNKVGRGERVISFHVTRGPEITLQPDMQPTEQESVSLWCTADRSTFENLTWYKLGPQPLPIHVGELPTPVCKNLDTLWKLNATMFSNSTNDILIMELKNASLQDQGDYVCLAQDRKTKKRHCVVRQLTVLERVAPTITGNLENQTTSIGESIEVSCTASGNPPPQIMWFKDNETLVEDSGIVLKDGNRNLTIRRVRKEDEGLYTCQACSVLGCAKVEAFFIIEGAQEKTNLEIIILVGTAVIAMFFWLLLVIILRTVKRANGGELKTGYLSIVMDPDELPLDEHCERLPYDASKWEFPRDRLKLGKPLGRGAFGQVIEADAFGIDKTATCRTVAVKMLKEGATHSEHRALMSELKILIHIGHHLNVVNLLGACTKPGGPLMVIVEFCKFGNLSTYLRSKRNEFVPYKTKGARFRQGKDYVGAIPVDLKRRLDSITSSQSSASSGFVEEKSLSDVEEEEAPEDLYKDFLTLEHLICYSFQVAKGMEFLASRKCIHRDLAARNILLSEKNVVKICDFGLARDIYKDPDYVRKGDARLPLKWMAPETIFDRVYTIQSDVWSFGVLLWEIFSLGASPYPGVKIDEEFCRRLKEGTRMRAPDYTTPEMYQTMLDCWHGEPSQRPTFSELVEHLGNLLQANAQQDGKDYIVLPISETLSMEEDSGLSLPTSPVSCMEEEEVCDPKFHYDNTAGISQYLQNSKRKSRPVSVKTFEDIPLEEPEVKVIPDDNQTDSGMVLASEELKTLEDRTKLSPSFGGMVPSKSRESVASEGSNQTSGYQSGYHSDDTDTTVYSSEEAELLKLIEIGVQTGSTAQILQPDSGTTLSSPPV

inhibition [1]	SMILES	further results
Active	CC(C)C[C@@H]1NC(=O)[C@H](CCCCN)NC(=O)[C@H](CCC(=O)O)NC(=O)[C@H](CC(=O)O)NC(=O)[C@H](Cc2ccc(O)cc2)NC(=O)[C@H](Cc2ccc(O)cc2)NC(=O)CC[C@@H](C(N)=O)NC(=O)[C@H](CCC(=O)O)NC1=O (YYDEKLEE-NH2; lactam N-8)	
inactive	C[C@@H]1NC(=O)CNC(=O)[C@H](CCC(=O)O)NC(=O)[C@H](CC(=O)O)NC(=O)[C@H](Cc2ccc(O)cc2)NC(=O)[C@H](Cc2ccc(O)cc2)NC(=O)CC[C@@H](C(N)=O)NC(=O)[C@H](CCC(=O)O)NC1=O (YYDEGAEE-NH2; lactam N-8)	
Active	CC(C)C[C@@H]1NC(=O)CNC(=O)[C@H](CCC(=O)O)NC(=O)[C@H](CC(=O)O)NC(=O)[C@H](CCCCN)NC(=O)[C@H](Cc2ccc(O)cc2)NC(=O)CC[C@@H](C(N)=O)NC(=O)[C@H](CCC(=O)O)NC1=O (YKDEGLEE-NH2; lactam N-8)	
inactive	CC(C)C[C@@H]1NC(=O)CNC(=O)[C@H](C)NC(=O)[C@H](CC(=O)O)NC(=O)[C@H](Cc2ccc(O)cc2)NC(=O)[C@H](Cc2ccc(O)cc2)NC(=O)CC[C@@H](C(N)=O)NC(=O)[C@H](CCC(=O)O)NC1=O (YYDAGLEE-NH2; lactam N-8)	
inactive	CC(C)C[C@@H]1NC(=O)CNC(=O)[C@H](CCC(=O)O)NC(=O)[C@H](CC(=O)O)NC(=O)[C@H](C)NC(=O)[C@H](Cc2ccc(O)cc2)NC(=O)CC[C@@H](C(N)=O)NC(=O)[C@H](CCC(=O)O)NC1=O (YADEGLEE-NH2; lactam N-8)	
Active	CC(C)C[C@@H]1NC(=O)CNC(=O)[C@H](CCC(=O)O)NC(=O)[C@H](CCCCN)NC(=O)[C@H](Cc2ccc(O)cc2)NC(=O)[C@H](Cc2ccc(O)cc2)NC(=O)CC[C@@H](C(N)=O)NC(=O)[C@H](CCC(=O)O)NC1=O (YYKEGLEE-NH2; lactam N-8)	Activity [2]: inactive
inactive	CC(C)C[C@@H]1NC(=O)CNC(=O)[C@H](CCC(=O)O)NC(=O)[C@H](CC(=O)O)NC(=O)[C@H](Cc2ccc(O)cc2)NC(=O)[C@H](Cc2ccc(O)cc2)NC(=O)CC[C@@H](C(N)=O)NC(=O)[C@H](C)NC1=O (YYDEGLAE-NH2; lactam N-8)	
inactive	CC(C)C[C@@H]1NC(=O)CNC(=O)[C@H](CCC(=O)O)NC(=O)[C@H](CC(=O)O)NC(=O)[C@H](Cc2ccc(O)cc2)NC(=O)[C@H](C)NC(=O)CC[C@@H](C(N)=O)NC(=O)[C@H](CCC(=O)O)NC1=O (AYDEGLEE-NH2; lactam N-8)	
Active	CC(C)C[C@@H]1NC(=O)CNC(=O)[C@H](CCC(=O)O)NC(=O)[C@H](CC(=O)O)NC(=O)[C@H](Cc2ccc(O)cc2)NC(=O)[C@H](Cc2ccc(O)cc2)NC(=O)CC[C@@H](C(N)=O)NC(=O)[C@H](CCC(=O)O)NC1=O (YYDEGLEE-NH2; lactam N-8)	inhibition [3]: Dose-dependent effect; inhibition (HUVEC [4]): Active; inhibition [5]: Active; inhibition (HUVEC [6]): inactive; inhibition [7]: Active; inhibition [8]: inactive; inhibition (HUVEC [9]): Active; inhibition (HUVEC [10]): Active
